≈ marks a conversion by molar mass, not a printed value. Where “and” joins values, the source holds several entries; their conditions need not be identical. Equal entries are not always repeated. Where two headings read alike, the source gives them in different places.
Assays:
[1] = test system: MRC-5SV2 (human lung fibroblast cell line); experiment: Toxicity against MRC-5SV2; type: cell-based
Procedure: (§1) ADME and toxicity for compounds were measured according to procedures outlined in the manuscript submitted in parallel to this one;2 other procedures were used for those compounds analysed by Monash University (in vitro ADME) or UCL (toxicity), both described in the main

[2] = test system: Enterococcus faecalis ATCC 51299 (vanA-positive; vancomycin-resistant); experiment: In vitro antibacterial activity, MIC (UCL), VRE; type: cell-based
In short: (§2)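 Broth microdilution in isosensitest broth; inoculum from overnight tryptone soya agar culture adjusted to A600 0.1 (~1 × 10^8 CFU/mL) then diluted 1:100. Compounds tested as 2-fold series, 32 to 0.03 μg/mL, DMSO at most 2%; vancomycin as quality control.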

[3] = test system: S. aureus ATCC 25923 (methicillin-susceptible); experiment: In vitro antibacterial activity, MIC (UCL), MSSA; type: cell-based, Staphylococcus aureus; settings: for MIC: Staphylococcus aureus
In short: as §2

VSE = experiment: In vitro antibacterial activity, MIC, VSE; type: cell-based
[4] = test system: PMM (primary mouse macrophages); experiment: Toxicity against PMM; type: cell-based
Procedure: as §1

[5] = test system: Staphylococcus aureus NCTC 13373 (mecA-positive; methicillin-resistant); experiment: In vitro antibacterial activity, MIC (UCL School of Pharmacy assay), MRSA; type: cell-based; settings: for MIC: Staphylococcus aureus
In short: as §2

[6] = Human plasma protein binding (PPB); type: in vitro ADME; settings: human, plasma, human plasma, NEU; read-out: Human PPB (NEU) (converted)
From the text: (§3) To guide our initial SAR exploration work, we obtained liver microsomal intrinsic clearance data for 5 of the 18 compounds assayed by CO-ADD (Supporting Information - CDCO Report and Supporting Information - Biology). We then acquired intrinsic clearance (CLint), plasma protein binding (PPB), and solubility data on further compounds throughout the SAR campaign (Supporting Information - Biology, Tables S3 and S4).
(§4) Table S4. ADME and Pharmacokinetics: compounds only appearing in the Supplementary […]
(§5) MRSA Aqueous HLM CLint Rat Hep CLint
(§6) Cmpd MIC Solubility Human PPB (%) (µL/min/mg (µL/min/10x6 LogD7.4
(§7) (µg/mL) (µM) protein) cells)
as §1

Aqueous solubility = type: physicochemical; settings: NEU; for solubility: thermodynamic from solid, read-out: Aqueous Solubility (NEU)
From the text: as §3, with “S4). […] The more polar compounds (lower LogD) had reduced PPB and were more metabolically stable.” for “S4).”
as §4, §5, §6, §7, §1

[7] = Human liver microsome intrinsic clearance; type: in vitro ADME; settings: human liver microsomes, NEU
From the text: as §3, §4, §5, §6, §7, §1

[8] = Rat hepatocyte intrinsic clearance; type: in vitro ADME; settings: rat hepatocytes, NEU; for hepatocyte CLint: read-out: Rat Hep CLint (NEU)
From the text: as §3, §4, §5, §6, §7, §1

SMILES	MRC5 TC50 [1]	VRE MIC [2]	MSSA MIC [3]	VSE MIC (VSE)	PMM TC50 [4]	MRC5 TC50 ([1]; MRC5 cells)	MIC ([2]; read-out: VRE MIC (UCL))	MIC ([5]; UCL, read-out: MRSA MIC (UCL))	MIC ([3]; read-out: MSSA MIC (UCL))	PMM TC50 ([4]; PMM)	also measured
c1ccc(-c2nc3ccccc3n2-c2ccc3occc3c2)nc1 [compound 991]	19.9 µg/mL	> 32 µg/mL	> 32 µg/mL	> 32 µg/mL	12.0 µg/mL						
Cc1ccc(Nc2c(-c3ccccn3)nc3ccccn23)cc1 [compound 988]											MIC ([2]; read-out: VRE MIC): 16 µg/mL (≈ 53.3 µM); MIC ([5]; read-out: MRSA MIC): 4 µg/mL (≈ 13.3 µM); MIC ([3]; read-out: MSSA MIC): 4 µg/mL (≈ 13.3 µM); MIC (VSE; read-out: VSE MIC): 16 µg/mL (≈ 53.3 µM)
Fc1ccc(Nc2c(-c3ccccn3)nc3ccccn23)cc1 [compound 987]	2.3 µg/mL				9.7 µg/mL						MIC ([2]; read-out: VRE MIC): 32 µg/mL (≈ 105 µM); MIC ([5]; read-out: MRSA MIC): 8 µg/mL (≈ 26.3 µM); MIC ([3]; read-out: MSSA MIC): 16 µg/mL (≈ 52.6 µM); MIC (VSE; read-out: VSE MIC): 32 µg/mL (≈ 105 µM)
c1ccc(-n2c(-c3ccccn3)nc3ccccc32)cc1 [OSA_000992]						64 µM	> 32 µg/mL	> 32 µg/mL	> 32 µg/mL	64 µM	MIC (VSE; read-out: VSE MIC (UCL)): > 32 µg/mL
CCN(c1ccc(F)cc1)c1c(-c2ccccn2)nc2ccccn12 [OSA_000981]						4.9 µM	8 µg/mL (≈ 24.1 µM)	2 µg/mL (≈ 6.02 µM)	2 µg/mL (≈ 6.02 µM)	8 µM	fraction unbound [6]: 0.022; solubility (Aqueous solubility): 31 µM (≈ 10.3 µg/mL); HLM CLint (NEU) [7]: 180 uL/min/mg protein; hepatocyte CLint [8]: 148 µL/min/1e6 cells
Fc1ccc(N(CC2CC2)c2c(-c3ccccn3)nc3ccccn23)cc1 [OSA_000979]						7.8 µM	4 µg/mL (≈ 11.2 µM)	2 µg/mL (≈ 5.58 µM)	2 µg/mL (≈ 5.58 µM)	4 µM	fraction unbound [6]: 0.0067; solubility (Aqueous solubility): 2 µM (≈ 0.717 µg/mL); microsomal CLint ([7]; read-out: HLM CLint (NEU)): 105 µL/min/mg; Rat Hep CLint (NEU) [8]: 141 uL/min/10x6 cells
c1ccc(-n2c(-c3ccccn3)nc3ccccc32)cc1 [compound 992]	17.4 µg/mL	> 32 µg/mL	> 32 µg/mL	> 32 µg/mL	17.4 µg/mL						MRSA MIC [5]: > 32 µg/mL and 32 µg/mL
N#CCc1ccc(-n2c(-c3ccccn3)nc3ccccc32)cc1 [OSA_000996]						64 µM	> 32 µg/mL	> 32 µg/mL	32 µg/mL (≈ 103 µM)	64 µM	MIC (VSE; read-out: VSE MIC (UCL)): > 32 µg/mL
Clc1ccn2c(-c3ccc4occc4c3)c(-c3ccccn3)nc2c1 [compound 985]		16 µg/mL	8 µg/mL	16 µg/mL							MRSA MIC [5]: 8 µg/mL
COc1ccc2nc(-c3ccccn3)c(N(C)c3ccc(F)cc3)n2c1 [OSA_000980]						2 µM	8 µg/mL (≈ 23 µM)	4 µg/mL (≈ 11.5 µM)	4 µg/mL (≈ 11.5 µM)	8 µM	fraction unbound [6]: 0.02; solubility (Aqueous solubility): 17 µM (≈ 5.92 µg/mL); HLM CLint (NEU) [7]: 251 uL/min/mg protein; hepatocyte CLint [8]: > 300 µL/min/1e6 cells
NC(=O)c1ccc(-n2c(-c3ccccn3)nc3ccccc32)cc1 [compound 989]	20.1 µg/mL	> 32 µg/mL	> 32 µg/mL	> 32 µg/mL	20.1 µg/mL						MRSA MIC [5]: > 32 µg/mL and 32 µg/mL
CCCN(c1ccc(F)cc1)c1c(-c2ccccn2)nc2ccccn12 [OSA_000982]						4.3 µM	4 µg/mL (≈ 11.5 µM)	2 µg/mL (≈ 5.77 µM)	2 µg/mL (≈ 5.77 µM)	2 µM	fraction unbound [6]: 0.0073; Aqueous Solubility (NEU) (Aqueous solubility): 3 µM; HLM CLint (NEU) [7]: 61.8 uL/min/mg protein; Rat Hep CLint (NEU) [8]: 108 uL/min/10x6 cells
c1ccc(Cn2c(-c3ccccn3)nc3ccccc32)cc1 [OSA_000993]						64 µM	> 32 µg/mL	> 32 µg/mL	> 32 µg/mL	64 µM	MIC (VSE; read-out: VSE MIC (UCL)): > 32 µg/mL
c1ccc(-c2nc3ccccc3n2-c2ccc(N3CCOCC3)cc2)nc1 [compound 995]	22.8 µg/mL	> 32 µg/mL	> 32 µg/mL	> 32 µg/mL	22.8 µg/mL						MRSA MIC [5]: > 32 µg/mL and 32 µg/mL
Fc1cc(-c2c(-c3ccccn3)nc3ccccn23)ccn1 [OSA_000986]							> 32 µg/mL	> 32 µg/mL	> 32 µg/mL		MIC (VSE; read-out: VSE MIC (UCL)): > 32 µg/mL
